The test addresses Escherichia coli DNA gyrase A/B tetramer (Escherichia coli (strain K12), UniProt P0AES4+P0AES6). The test is described as follows: DNA gyrase supercoiling activity fluorescence polarisation assay. The note with it: 5 nM enzyme, relaxed plasmid, 0.3 mM ATP, ambient temperature; read-out: E. coli DNA gyrase supercoiling IC50. In kind it is biochemical. A digest of the protocol:
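Supercoiling reactions quenched with 40 nM 5′-BODIPY-FL triplex-forming oligonucleotide probe in pH 3.5 NaCl/sodium acetate buffer; after 60 min, fluorescence anisotropy read (ex 485/em 535 nm). IC50 by nonlinear regression, normalised to 0.8% DMSO (100% activity) and 5 μM ciprofloxacin (0% activity).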
In the case of `CSc1nccc(-c2noc3c(F)c4c(cc23)CC2(C(=O)NC(=O)NC2=O)[C@H]2[C@H](C)O[C@H](C)CN42)n1` [Example 168, (2R,4S,4aS)-11-fluoro-2,4-dimethyl-8-(2-(methylthio)pyrimidin-4-yl)-2,4,4a,6-tetrahydro-1H,1′H-spiro[isoxazolo[4,5-g][1,4]oxazino[4,3-a]quinoline-5,5′-pyrimidine]-2′,4′,6′(3′H)-trione], the IC50 is 600 nM.
Consider `COCCNc1nccc(-c2noc3c(F)c4c(cc23)CC2(C(=O)NC(=O)NC2=O)[C@H]2[C@H](C)O[C@H](C)CN42)n1` [Example 170, (2R,4S,4aS)-11-fluoro-8-(2-(2-methoxyethylamino)pyrimidin-4-yl)-2,4-dimethyl-2,4,4a,6-tetrahydro-1H,1′H-spiro[isoxazolo[4,5-g][1,4]oxazino[4,3-a]quinoline-5,5′-pyrimidine]-2′,4′,6′(3′H)-trione], for which the IC50 was found to be 700 nM.
On to `C[C@@H]1CN2c3c(cc4c(-c5ccnc(NCCO)n5)noc4c3F)CC3(C(=O)NC(=O)NC3=O)[C@H]2[C@H](C)O1` [Example 171, (2R,4S,4aS)-11-fluoro-8-(2-(2-hydroxyethylamino)pyrimidin-4-yl)-2,4-dimethyl-2,4,4a,6-tetrahydro-1H,1′H-spiro[isoxazolo[4,5-g][1,4]oxazino[4,3-a]quinoline-5,5′-pyrimidine]-2′,4′,6′(3′H)-trione], for which the IC50 stood at 300 nM.
As for `COc1nccc(-c2noc3c(F)c4c(cc23)CC2(C(=O)NC(=O)NC2=O)[C@H]2[C@H](C)O[C@H](C)CN42)n1` [Example 172, (2R,4S,4aS)-11-fluoro-8-(2-methoxypyrimidin-4-yl)-2,4-dimethyl-2,4,4a,6-tetrahydro-1H,1′H-spiro[isoxazolo[4,5-g][1,4]oxazino[4,3-a]quinoline-5,5′-pyrimidine]-2′,4′,6′(3′H)-trione], the IC50 came to 900 nM.
For `C[C@@H]1CN2c3c(cc4c(-c5ccnc(C#N)n5)noc4c3F)CC3(C(=O)NC(=O)NC3=O)[C@H]2[C@H](C)O1` [Example 173, 4-((2R,4S,4aS)-11-fluoro-2,4-dimethyl-2′,4′,6′-trioxo-2,2′,3′,4,4a,4′,6,6′-octahydro-1H,1′H-spiro[isoxazolo[4,5-g][1,4]oxazino[4,3-a]quinoline-5,5′-pyrimidine]-8-yl)pyrimidine-2-carbonitrile], the IC50 stood at 100 nM.
Turning to `C[C@@H]1CN2c3c(cc4c(-c5ccnc(N)n5)noc4c3F)CC3(C(=O)NC(=O)NC3=O)[C@H]2[C@H](C)O1` [Example 174, (2R,4S,4aS)-8-(2-aminopyrimidin-4-yl)-11-fluoro-2,4-dimethyl-2,4,4a,6-tetrahydro-1H,1′H-spiro[isoxazolo[4,5-g][1,4]oxazino[4,3-a]quinoline-5,5′-pyrimidine]-2′,4′,6′(3′H)-trione], the IC50 stood at 500 nM.
The same measure for `C[C@@H]1CN2c3c(cc4c(-c5ccnc(O)n5)noc4c3F)CC3(C(=O)NC(=O)NC3=O)[C@H]2[C@H](C)O1` [Example 175, (2R,4S,4aS)-11-fluoro-8-(2-hydroxypyrimidin-4-yl)-2,4-dimethyl-1,2,4,4a-tetrahydro-2′H,6H-spiro[isoxazolo[4,5-g][1,4]oxazino[4,3-a]quinoline-5,5′-pyrimidine]-2′,4′,6′(1′H,3′H)-trione]: 900 nM; for `C[C@@H]1CN2c3c(cc4c(-c5ccnc(N6CCOCC6)n5)noc4c3F)CC3(C(=O)NC(=O)NC3=O)[C@H]2[C@H](C)O1` [Example 176, (2R,4S,4aS)-11-fluoro-2,4-dimethyl-8-(2-morpholinopyrimidin-4-yl)-2,4,4a,6-tetrahydro-1H,1′H-spiro[isoxazolo[4,5-g][1,4]oxazino[4,3-a]quinoline-5,5′-pyrimidine]-2′,4′,6′(3′H)-trione]: 3200 nM.
The same measure for `C[C@@H]1CN2c3c(cc4c(-c5ncnn5C)noc4c3F)CC3(C(=O)NC(=O)NC3=O)[C@H]2[C@H](C)O1` [Example 178, (2R,4S,4aS)-11-fluoro-2,4-dimethyl-8-(1-methyl-1H-1,2,4-triazol-5-yl)-2,4,4a,6-tetrahydro-1H,1′H-spiro[isoxazolo[4,5-g][1,4]oxazino[4,3-a]quinoline-5,5′-pyrimidine]-2′,4′,6′(3′H)-trione]: 1300 nM.

Values taken from patent publication US9040528B2, “Chemical compounds 542” (AstraZeneca AB, priority 2008, dated 2015).
